According to paper PMC11676817, “Antiproliferative and Morphological Analysis Triggered by Drugs Contained in the Medicines for Malaria Venture COVID-Box Against Toxoplasma gondii Tachyzoites” (Microorganisms, 2024):
Like-named read-outs stand apart in the source and are kept apart here.

Legend:
in vitro = conditions: human
[1] = Rat, cited from earlier work; for Cmax: read-out: Plasma concentration (Cmax)
[2] = Mice/Mouse; ref Table S3 supplementary refs 6, 16, 24, 27, 33; cited from earlier work
[3] = published in vivo studies; ref Table S3; cited from earlier work
[4] = test system: Toxoplasma gondii tachyzoites of the RH strain; assay: microbe, parasite or virus in culture; conditions: 168 h; for inhibition at 1 µM: read-out: Inhibition of tachyzoite proliferation
[5] = test system: Toxoplasma gondii tachyzoites of the RH strain; assay: microbe, parasite or virus in culture; format: cell-based; conditions: Toxoplasma gondii; for inhibition at 0.0625 µM / activity at 0.0625 µM: 62.5 nM; for activity at 0.125 µM: 125 nM; for activity at […]: 250 nM
T. gondii tachyzoites [6] = assay: Transmission electron microscopy of treated tachyzoites; format: cell-based, Toxoplasma gondii; conditions: 48 h
Description: NHDF cultures infected with T. gondii were treated with compounds and fixed with 2.5% glutaraldehyde (EM Grade—Ted Pella Inc., Redding, CA, USA) in 0.1 M sodium cacodylate buffer pH 7.4 (Ted Pella Inc.). Cells were post-fixed with 1% osmium tetroxide, 1.25% potassium ferrocyanide, and 5 mM CaCl2, in 0.1 M sodium cacodylate buffer (pH 7.4). The sample fixation and processing for microscopy were performed as previously described. Samples were dehydrated in alcohol solutions of increasing concentrations (35–100%) and embedded in epoxy resin (Polybed 812, Polysciences). Ultrathin sections were collected in copper grids 300 mesh (Ted Pella Inc.), stained with uranyl acetate and lead citrate, and then observed in a Fei TecNai G2 120 kV Spirit Electron Microscope (FEI Company, Eindhoven, The Netherlands).

[7] = test system: Toxoplasma gondii tachyzoites of the RH strain; conditions: for IC50: 7 days of treatment
[8] = cited from earlier work
[9] = Cytotoxicity assay in NHDF cells (MTS); conditions: human
T. gondii tachyzoites [10] = conditions: cited from earlier work
T. gondii tachyzoites [11] = assay: Immunofluorescence microscopy of treated tachyzoites (aberrant cell division, rhoptry morphology); conditions: 24 h; for PVs with parasites with aberrant division: IMC1 and DAPI labeling
Description: Rabbit anti-IMC1 (1:1000) and anti-ARO (1:1000) (kindly provided by Dr. Dominique Soldati, Universite de Geneve, Switzerland) were used to label the mother cell and daughter cell pellicles throughout the endodyogeny process and rhoptries, respectively. Mouse anti-SAG1 (1:200; kindly donated by Dr. Tiago Mineo, Universidade Federal de Uberlândia) was used to label the parasite plasma membrane. DAPI (2 µg/mL; Sigma-Aldrich, St. Louis, MO, USA) was used to label the DNA. […] After labeling with antibodies, the coverslips were mounted onto slides using Prolong gold (Life Technologies), and samples were examined on a Zeiss Axio Observer Z1 microscope (Baden-Württemberg, Germany) or Olympus BX60 microscope (Shinjuku City, Tokyo, Japan).

[12] = cited from earlier work; remark: listed apart in the source
[13] = ref Table S3 supplementary refs 3, 10, 12, 28, 32
[14] = NHDF, read-out: IC50 (μM) in Tachyzoites, RH strain in NHDF cells, plaque assay, 7 days of treatment
[15] = 31.2 nM, 24 h of treatment, read-out: Proliferation index (%)
[16] = 24 h, read-out: Inhibition of parasite proliferation
[17] = 24 h of treatment, read-out: Proliferation index (%)
[18] = read-out: IC50 (μM) in Tachyzoites, RH strain in NHDF cells, plaque assay
[19] = read-out: IC50 against T. gondii proliferation, RH strain
[20] = ref Table S3 supplementary refs 3, 10, 12, 21
[21] = read-out: IC50 against T. gondii proliferation, RH strain, 7 days of treatment
[22] = read-out: Plasma concentration (Cmax), Human, ref Table S3 supplementary refs 20, 22, 25, 31
[23] = Human, ref Table S3 supplementary refs 1, 4, 8, 11, 13, 15, 17, 18, 19, 23, 31
[24] = read-out: Plasma concentration (Cmax), Human, ref Table S3 supplementary refs 1, 4, 8, 11, 13, 15, 17, 18, 19, 23

## COc1ccc2cc1Oc1ccc(cc1)C[C@H]1c3cc(c(OC)cc3CCN1C)Oc1c(OC)c(OC)cc3c1[C@H](C2)N(C)CC3 [Tetrandrine]
In vitro
  CC50 at 7 days: 4.77 ± 8.25 µM
  selectivity ratio at 7 days: 14
[1]; ref Table S3 supplementary refs 28, 32
  Plasma concentration (Cmax): 237.10 ng/mL
[1]; [13]
  Cmax: 381 nM
[2]
  Does it cross the blood-brain barrier or is found in the brain?: Yes
[3]
  Brain availability: confirmed
[4]; [14]
  IC50: 0.35 ± 0.07 µM

## C[C@H]1c2cccc(O)c2C(=O)C2=C(O)[C@]3(O)C(=O)C(C(N)=O)=C(O)[C@@H](N(C)C)[C@@H]3[C@@H](O)[C@@H]21 [doxycycline, Doxycycline]
[4]
  inhibition at 1 µM: ≥ 70%

## C[C@@H]1C[C@@H]([C@H](O)CC2CC(=O)NC(=O)C2)C(=O)[C@@H](C)C1 [Cycloheximide]
[5]; [15]
  activity at 0.0312 µM: 47.9%
[5]; [16]
  inhibition at 0.0625 µM: 75 to 80%
[5]; [17]
  activity at 0.0625 µM: 30.5%
  activity at 0.125 µM: 33%
T. gondii tachyzoites [6]; 62.5 nM
  Effect on T. gondii ultrastructure (TEM): increased endoplasmic reticulum area
T. gondii tachyzoites [6]; 125 nM
  Effect on T. gondii ultrastructure (TEM): vacuoles containing parasites were completely lysed
[7]; [18]
  IC50: 0.02 µM
[7]; [19]
  IC50: < 0.03 µM
In vitro
  CC50 at 7 days: 6.08 ± 4.63 µM
[1]; [20]
  Plasma concentration (Cmax): 43.1 ng/mL
[1]; [13]
  Cmax: 153 nM
[4]; [21]
  IC50: ≤ 0.03 µM

## O=C(Nc1ccc([N+](=O)[O-])cc1Cl)c1cc(Cl)ccc1O [Niclosamide]
In vitro
  selectivity ratio at 7 days: 8
[8]; Human, ref Table S3 supplementary ref 22
  Plasma concentration (Cmax): 1280 ng/mL
[8]; [22]
  Cmax: 3900 nM
[1]; ref Table S3 supplementary refs 21, 29
  Cmax: 1080 nM
[4]; [14]
  IC50: 0.36 ± 0.02 µM
[9]
  CC50 at 7 days: 3.05 ± 0.08 µM

## COc1cccc2c1C(=O)c1c(O)c3c(c(O)c1C2=O)C[C@@](O)(C(=O)CO)C[C@@H]3O[C@H]1C[C@H](N)[C@H](O)[C@H](C)O1 [doxorubicin, Doxorubicin]
[4]
  inhibition at 1 µM: ≥ 70%

## COc1cc(NC(=O)Nc2cccc(CNC(=O)O[C@H]3CCOC3)c2)ccc1-c1cnco1 [Merimepodib]
[5]; 1.5 µM, 24 h, read-out: Inhibition of parasite proliferation
  inhibition at […]: 55 to 60%
[5]; 2.0 µM, 24 h, read-out: Inhibition of parasite proliferation
  inhibition at 2 µM: 55 to 60%
[7]; [18]
  IC50: 0.48 ± 0.08 µM
T. gondii tachyzoites [10]; 72 h of treatment, ref [23], read-out: IC50 for T. gondii tachyzoites
  IC50: 780 nM
[8]; [23]
  Plasma concentration (Cmax): 1590 ng/mL
[8]; [24]
  Cmax: 5510 nM
[4]; [14]
  IC50: < 0.5 µM

## C[C@H]1O[C@@H](O[C@H]2[C@@H](O)C[C@H](O[C@H]3[C@@H](O)C[C@H](O[C@H]4CC[C@@]5(C)[C@H](CC[C@@H]6[C@@H]5CC[C@]5(C)[C@@H](C7=CC(=O)OC7)CC[C@]65O)C4)O[C@@H]3C)O[C@@H]2C)C[C@H](O)[C@@H]1O [digitoxin, Digitoxin]
[4]
  inhibition at 1 µM: ≥ 70%

## CCC(C)n1ncn(-c2ccc(N3CCN(c4ccc(OCC5COC(Cn6cncn6)(c6ccc(Cl)cc6Cl)O5)cc4)CC3)cc2)c1=O (centres unmarked) [itraconazole, Itraconazole]
[4]
  inhibition at 1 µM: ≥ 70%

## CC(C)C[C@H](NC(=O)[C@H](Cc1ccccc1)NC(=O)c1cnccn1)B(O)O [Bortezomib]
[5]; 31.2 nM, 24 h, read-out: Inhibition of parasite proliferation
  inhibition at 0.0312 µM: 75 to 80%
[5]; [15]
  activity at 0.0312 µM: 20.9%
[5]; [16]
  inhibition at 0.0625 µM: > 90%
[5]; [17]
  activity at 0.0625 µM: 9.23%
T. gondii tachyzoites [6]; 62.5 nM
  Effect on T. gondii ultrastructure (TEM): affected the parasite cell division
[7]; [18]
  IC50: 0.03 µM
[7]; [19]
  IC50: < 0.03 µM
T. gondii tachyzoites [10]; 72 h of treatment, ref Cajazeiro et al. (2022) [24], read-out: EC50 against T. gondii
  EC50: 220 nM
T. gondii tachyzoites [10]; 72 h of treatment, ref [34], read-out: IC50 in tachyzoites of T. gondii
  IC50: 100 nM
In vitro
  selectivity ratio at 7 days: 24
[8]; human, in vivo
  Cmax: 148 nM
  Plasma concentration (Cmax): 56.7 ng/mL
[4]; [21]
  IC50: ≤ 0.03 µM
[9]
  CC50 at 7 days: 0.72 ± 0.24 µM
T. gondii tachyzoites [11]; 31.2 nM
  PVs with parasites with aberrant division: 23.6%
T. gondii tachyzoites [11]; 62.5 nM
  PVs with parasites with aberrant division: 48.0%

## C[C@H]1O[C@@H](O[C@H]2[C@@H](O)C[C@H](O[C@H]3[C@@H](O)C[C@H](O[C@H]4CC[C@@]5(C)[C@H](CC[C@@H]6[C@@H]5C[C@@H](O)[C@]5(C)[C@@H](C7=CC(=O)OC7)CC[C@]65O)C4)O[C@@H]3C)O[C@@H]2C)C[C@H](O)[C@@H]1O [Digoxin]
In vitro
  CC50 at 7 days: 0.34 ± 0.32 µM
[4]; [21]
  IC50: ≤ 0.03 µM
[4]; [14]
  IC50: 0.03 ± 0.01 µM

## CCc1nc(N)nc(N)c1-c1ccc(Cl)cc1 [Pyrimethamine]
[5]; [17]
  activity at 0.125 µM: 87.3%
  activity at […]: 56.6%
[5]; 500 nM, 24 h of treatment, read-out: Proliferation index (%)
  activity at 0.5 µM: 39.2%
[5]; 1000 nM, 24 h of treatment, read-out: Proliferation index (%)
  activity at 1 µM: 22%

## Ivermectin
T. gondii tachyzoites [6]; 1 µM
  Effect on T. gondii ultrastructure (TEM): induced the formation of myelin-like structures
[8]; [23]
  Plasma concentration (Cmax): 260.5 ng/mL
[8]; [24]
  Cmax: 298 nM
[12]; Mouse, ref Table S3 supplementary ref 16
  Plasma concentration (Cmax): 642.3 ng/mL
[12]; read-out: Plasma concentration (Cmax), Mouse/Mice, ref Table S3 supplementary refs 16, 27
  Cmax: 734 nM
T. gondii tachyzoites [11]; 1 µM
  Effect on tachyzoite cell division (fluorescence microscopy): significant cell division arrestment

## CC[C@H]1CN2CCc3cc(OC)c(OC)cc3[C@@H]2C[C@@H]1C[C@H]1NCCc2cc(OC)c(OC)cc21 [Emetine]
In vitro
  CC50 at 7 days: 1.02 ± 0.19 µM
[8]; [23]
  Plasma concentration (Cmax): 9.6 ng/mL
[8]; [24]
  Cmax: 20 nM
[4]; [21]
  IC50: < 0.1 µM
[4]; [14]
  IC50: 0.05 ± 0.01 µM

## CCCCc1oc2ccccc2c1C(=O)c1cc(I)c(OCCN(CC)CC)c(I)c1 [amiodarone, Amiodarone]
[7]
  Cytotoxicity for the host cells during the initial screening: signs of cytotoxicity for the host cells

## C[C@@H]1O[C@@H](O[C@@H]2C=C3CC[C@@H]4[C@H](CC[C@]5(C)[C@@H](c6ccc(=O)oc6)CC[C@]45O)[C@@]3(C)CC2)[C@H](O)[C@H](O)[C@H]1O [proscillaridin, Proscillaridin]
[7]; 1 µM, NHDF host cells
  Cytotoxicity for the host cells during the initial screening: signs of cytotoxicity for the host cells
[4]
  inhibition at 1 µM: ≥ 70%

## COc1cc2c3cc1Oc1c(OC)c(OC)cc4c1[C@@H](Cc1ccc(O)c(c1)Oc1ccc(cc1)C[C@@H]3N(C)CC2)N(C)CC4 [Berbamine]
In vitro
  CC50 at 7 days: 4.61 ± 7.52 µM
  selectivity ratio at 7 days: 15
[1]; [20]
  Plasma concentration (Cmax): 32.6 ng/mL
[1]; [13]
  Cmax: 53.6 nM
[4]; [14]
  IC50: 0.31 ± 0.03 µM

## COc1c(C)c2c(c(O)c1C/C=C(\C)CCC(=O)O)C(=O)OC2 [Mycophenolic acid]
[5]; [17]
  activity at 0.125 µM: 61.3%
  activity at […]: 42%
[5]; 250 nM (0.25 µM), 24 h, read-out: Inhibition of parasite proliferation
  inhibition at […]: 55 to 60%
T. gondii tachyzoites [6]; 250 nM
  Effect on T. gondii ultrastructure (TEM): affected the tachyzoites’ division process
T. gondii tachyzoites [10]; 24 h of treatment, ref [23], read-out: IC50 for T. gondii tachyzoites
  IC50: 211000 nM
In vitro
  selectivity ratio at 7 days: 340
[8]; Human, ref Table S3 supplementary refs 20, 25
  Plasma concentration (Cmax): 24300 ng/mL
[8]; [22]
  Cmax: 75800 nM
[4]; [21]
  IC50: < 0.1 µM
[4]; [14]
  IC50: 0.07 ± 0.01 µM
[9]
  CC50 at 7 days: 23.8 ± 32 µM

## O=c1[nH]c2ccccc2n1C1CCN(CCCC(c2ccc(F)cc2)c2ccc(F)cc2)CC1 [Pimozide]
[4]; [14]
  IC50: 0.64 ± 0.15 µM

## CC(C)(C)Cn1c(N)nc2ccc(-c3[nH]c(C(C)(C)C)nc3-c3ccc(F)cc3)nc21 [LY2228820]
[4]; [21]
  IC50: < 0.1 µM
[4]; [14]
  IC50: 0.04 µM

## COC(=O)C1=C(C)NC(C)=C(C(=O)OCCN2CCN(C(c3ccccc3)c3ccccc3)CC2)C1c1cccc([N+](=O)[O-])c1 (centres unmarked) [Manidipine]
[8]; human, in vivo
  Cmax: 9 nM
  Plasma concentration (Cmax): 5.53 ng/mL
[4]; [14]
  IC50: 0.74 ± 0.09 µM

## Cc1ccc(C(=O)Nc2ccc(CN3CCN(C)CC3)c(C(F)(F)F)c2)cc1C#Cc1cnc2cccnn12 [Ponatinib]
[8]; [23]
  Plasma concentration (Cmax): 123 ng/mL
[8]; [24]
  Cmax: 231 nM
[4]; [14]
  IC50: 0.33 ± 0.03 µM
